{"source": "ChEMBL document CHEMBL5506043", "about": "“A β-Carboline Derivate PAD4 Inhibitor Reshapes Neutrophil Phenotype and Improves the Tumor Immune Microenvironment against Triple-Negative Breast Cancer” (J Med Chem, 2024)", "key": {"Mus musculus [1]": {"tested_on": "Mus musculus", "assay": "(§1) Induction of tumor microenvironment in female BALB/c mouse implanted with mouse orthotopic 4T1-Luc cells assessed as decrease in proportion of PD-L1-positive/MHC-II-positive tumor-associated neutrophils at 1 to 10 mg/kg, iv administered via tail vein every 2 days for 9 times for 17 days by single-cell mass spectrometry flow cytometry analysis", "format": "functional, organism-based", "settings": "dose 1-10 mg/kg, time 17.0 day"}, "Mus musculus [2]": {"tested_on": "Mus musculus", "assay": "Induction of tumor microenvironment in female BALB/c mouse implanted with mouse orthotopic 4T1-Luc cells assessed as decrease in PD-L1 expression for PD-L1-positive/MHC-II-positive tumor-associated neutrophils at 1 to 10 mg/kg, iv administered via tail vein every 2 days for 9 times for 17 days", "format": "functional, organism-based", "settings": "dose 1-10 mg/kg, time 17.0 day"}, "4T1-Luc [3]": {"tested_on": "4T1-Luc", "assay": "Antitumor activity against mouse orthotopic 4T1-Luc cells implanted in iv dosed female BALB/c mouse assessed as inhibition of tumor growth administered via tail vein every 2 days for 9 times for 17 days and measured every 2 days by IVIS live cell imaging analysis", "format": "functional, organism-based", "settings": "dose 1-10 mg/kg, time 17.0 day"}, "[4]": {"target": "Protein-arginine deiminase type-2 (Homo sapiens, UniProt Q9Y2J8)", "sequence (Q9Y2J8 whole entry)": "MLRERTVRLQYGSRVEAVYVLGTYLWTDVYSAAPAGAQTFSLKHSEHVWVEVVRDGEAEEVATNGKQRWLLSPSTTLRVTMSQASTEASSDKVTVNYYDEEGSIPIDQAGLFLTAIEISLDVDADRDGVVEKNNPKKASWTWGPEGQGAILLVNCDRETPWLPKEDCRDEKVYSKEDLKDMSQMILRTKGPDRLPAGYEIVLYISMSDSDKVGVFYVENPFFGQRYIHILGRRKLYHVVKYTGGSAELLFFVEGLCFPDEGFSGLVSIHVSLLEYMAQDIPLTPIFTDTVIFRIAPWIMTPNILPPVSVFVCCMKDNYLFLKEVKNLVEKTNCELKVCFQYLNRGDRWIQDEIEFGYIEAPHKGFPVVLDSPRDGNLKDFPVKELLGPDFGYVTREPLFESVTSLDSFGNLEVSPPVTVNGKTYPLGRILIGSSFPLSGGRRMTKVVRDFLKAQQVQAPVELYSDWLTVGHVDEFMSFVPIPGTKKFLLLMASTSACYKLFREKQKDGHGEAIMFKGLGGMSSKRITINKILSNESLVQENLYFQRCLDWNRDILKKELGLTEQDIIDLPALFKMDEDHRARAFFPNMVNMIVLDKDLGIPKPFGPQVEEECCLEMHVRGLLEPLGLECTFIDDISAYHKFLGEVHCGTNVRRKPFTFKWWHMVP", "assay": "Inhibition of PAD2 (unknown origin) using Nalpha-benzoyl-L-arginine ethyl ester as substrate preincubated for 60 mins followed by substrate addition and measured after 90 mins by colorimetric analysis"}, "Neutrophil": {"tested_on": "Neutrophil", "assay": "In vivo inhibition of PAD4 in female BALB/c mouse implanted with mouse orthotopic 4T1-Luc cells assessed as inhibition of neutrophil extracellular traps formation in tumor at 10 mg/kg, iv administered via tail vein every 2 days for 9 times for 17 days by immunohistochemical staining based analysis", "format": "functional, organism-based", "settings": "time 17.0 day"}, "[5]": {"assay": "Toxicity in female BALB/c mouse implanted with mouse orthotopic 4T1-Luc cells assessed as effect on viscero-somatic ratio at 1 to 10 mg/kg, iv administered via tail vein every 2 days for 9 times for 17 days", "format": "organism-based", "settings": "in vivo, 408 h, dose 1-10 mg/kg, time 17 day"}, "[6]": {"assay": "Terminal half life in male Sprague-Dawley rat at 3.5 mg/kg, iv by LC-MS/MS analysis", "format": "ADME, organism-based", "settings": "in vivo"}, "[7]": {"assay": "Toxicity in female BALB/c mouse implanted with mouse orthotopic 4T1-Luc cells assessed as morphological changes in kidney at 1 to 10 mg/kg, iv administered via tail vein every 2 days for 9 times for 17 days by H and E staining based analysis", "format": "organism-based", "settings": "in vivo, 408 h, dose 1-10 mg/kg, time 17 day"}, "Mus musculus [8]": {"tested_on": "Mus musculus", "assay": "Induction of tumor microenvironment in female BALB/c mouse implanted with mouse orthotopic 4T1-Luc cells assessed as increase in MHC-II expression for MHC-II-negative tumor-associated neutrophils at 1 to 10 mg/kg, iv administered via tail vein every 2 days for 9 times for 17 days", "format": "functional, organism-based", "settings": "dose 1-10 mg/kg, time 17.0 day"}, "4T1-Luc [9]": {"tested_on": "4T1-Luc", "assay": "Antitumor activity against mouse orthotopic 4T1-Luc cells implanted in iv dosed female BALB/c mouse assessed as reduction in tumor weight administered via tail vein every 2 days for 9 times for 17 days and measured every 2 days", "format": "functional, organism-based", "settings": "dose 1-10 mg/kg, time 17.0 day"}, "[10]": {"assay": "Antitumor activity against mouse orthotopic 4T1-Luc cells implanted in female BALB/c mouse assessed as tumor growth inhibition at 10 mg/kg, iv administered via tail vein every 2 days for 9 times for 17 days and measured every 2 days relative to control", "format": "functional", "settings": "408 h, time 17 day, read-out: TGI"}, "4T1-Luc [11]": {"tested_on": "4T1-Luc", "assay": "Antimetastatic activity against mouse orthotopic 4T1-Luc cells implanted in iv dosed female BALB/c mouse assessed as reduction in lung metastasis administered via tail vein every 2 days for 9 times for 17 days by IVIS live cell imaging analysis", "format": "functional, organism-based", "settings": "dose 1-10 mg/kg, time 17.0 day"}, "4T1 [12]": {"tested_on": "4T1", "assay": "Antiproliferative activity against mouse 4T1 cells assessed as inhibition of cell growth incubated for 48 hrs by MTT assay", "format": "functional, cell-based", "settings": "4T1, 48 h"}, "[13]": {"assay": "Toxicity in female BALB/c mouse implanted with mouse orthotopic 4T1-Luc cells assessed as effect on serum AST level at 1 to 10 mg/kg, iv administered via tail vein every 2 days for 9 times for 17 days", "format": "organism-based", "settings": "in vivo, 408 h, dose 1-10 mg/kg, time 17 day"}, "4T1-Luc [14]": {"tested_on": "4T1-Luc", "assay": "Antimetastatic activity against mouse orthotopic 4T1-Luc cells implanted in iv dosed female BALB/c mouse assessed as reduction in lung metastasis administered via tail vein every 2 days for 9 times for 17 days by H and E staining based analysis", "format": "functional, organism-based", "settings": "dose 1-10 mg/kg, time 17.0 day"}, "4T1 [15]": {"tested_on": "4T1", "assay": "Antimetastatic activity in starved mouse 4T1 cells assessed as inhibition of cell migration by measuring reduction in number of metastatic cells incubated for 12 hrs by crystal violet staining based transwell assay", "format": "functional", "settings": "dose 0.5-2 µM"}, "Mus musculus [16]": {"tested_on": "Mus musculus", "assay": "as §1, with “m1 macrophage polarization by measuring upregulation” for “decrease in proportion”, “conventional dendritic cells” for “PD-L1-positive/MHC-II-positive tumor-associated neutrophils”", "format": "functional, organism-based", "settings": "dose 1-10 mg/kg, time 17.0 day"}, "4T1-Luc [17]": {"tested_on": "4T1-Luc", "assay": "Antitumor activity against mouse orthotopic 4T1-Luc cells implanted in female BALB/c mouse assessed as increase in neutrophil infiltration in tumor at 10 mg/kg, iv administered via tail vein every 2 days for 9 times for 17 days by immunohistochemical staining based analysis", "format": "functional, organism-based", "settings": "time 17.0 day"}, "Mus musculus [18]": {"tested_on": "Mus musculus", "assay": "Induction of tumor microenvironment in female BALB/c mouse implanted with mouse orthotopic 4T1-Luc cells assessed as increase in MHC-II expression for MHC-II-positive tumor-associated neutrophils at 1 to 10 mg/kg, iv administered via tail vein every 2 days for 9 times for 17 days", "format": "functional, organism-based", "settings": "dose 1-10 mg/kg, time 17.0 day"}, "[19]": {"assay": "Toxicity in female BALB/c mouse implanted with mouse orthotopic 4T1-Luc cells assessed as effect on serum urea level at 1 to 10 mg/kg, iv administered via tail vein every 2 days for 9 times for 17 days", "format": "organism-based", "settings": "in vivo, 408 h, dose 1-10 mg/kg, time 17 day"}, "4T1-Luc [20]": {"tested_on": "4T1-Luc", "assay": "Antitumor activity against mouse orthotopic 4T1-Luc cells implanted in iv dosed female BALB/c mouse assessed as reduction in tumor volume administered via tail vein every 2 days for 9 times for 17 days and measured every 2 days", "format": "functional, organism-based", "settings": "dose 1-10 mg/kg, time 17.0 day"}, "[21]": {"assay": "Cytotoxicity against human MCF-10A cells assessed as inhibition of cell growth incubated for 48 hrs by MTT assay", "format": "toxicity, cell-based"}, "Mus musculus [22]": {"tested_on": "Mus musculus", "assay": "as §1, with “MHC-II-negative” for “PD-L1-positive/MHC-II-positive”", "format": "functional, organism-based", "settings": "dose 1-10 mg/kg, time 17.0 day"}, "[23]": {"assay": "Toxicity in female BALB/c mouse implanted with mouse orthotopic 4T1-Luc cells assessed as morphological changes in liver at 1 to 10 mg/kg, iv administered via tail vein every 2 days for 9 times for 17 days by H and E staining based analysis", "format": "organism-based", "settings": "in vivo, 408 h, dose 1-10 mg/kg, time 17 day"}, "[24]": {"assay": "AUC (0 to t) in male Sprague-Dawley rat at 3.5 mg/kg, iv by LC-MS/MS analysis", "format": "ADME, organism-based", "settings": "in vivo"}, "Mus musculus [25]": {"tested_on": "Mus musculus", "assay": "as §1, with “downregulation” for “decrease in proportion”, “myeloid derived suppressive M-MDSC cells” for “PD-L1-positive/MHC-II-positive tumor-associated neutrophils”", "format": "functional, organism-based", "settings": "dose 1-10 mg/kg, time 17.0 day"}, "Mus musculus [26]": {"tested_on": "Mus musculus", "assay": "as §1, with “downregulation” for “decrease in proportion”, “myeloid derived suppressive G-MDSC cells” for “PD-L1-positive/MHC-II-positive tumor-associated neutrophils”", "format": "functional, organism-based", "settings": "dose 1-10 mg/kg, time 17.0 day"}, "[27]": {"target": "Protein-arginine deiminase type-4 (Mus musculus) (UniProt Q9Z183)", "sequence (Q9Z183 whole entry)": "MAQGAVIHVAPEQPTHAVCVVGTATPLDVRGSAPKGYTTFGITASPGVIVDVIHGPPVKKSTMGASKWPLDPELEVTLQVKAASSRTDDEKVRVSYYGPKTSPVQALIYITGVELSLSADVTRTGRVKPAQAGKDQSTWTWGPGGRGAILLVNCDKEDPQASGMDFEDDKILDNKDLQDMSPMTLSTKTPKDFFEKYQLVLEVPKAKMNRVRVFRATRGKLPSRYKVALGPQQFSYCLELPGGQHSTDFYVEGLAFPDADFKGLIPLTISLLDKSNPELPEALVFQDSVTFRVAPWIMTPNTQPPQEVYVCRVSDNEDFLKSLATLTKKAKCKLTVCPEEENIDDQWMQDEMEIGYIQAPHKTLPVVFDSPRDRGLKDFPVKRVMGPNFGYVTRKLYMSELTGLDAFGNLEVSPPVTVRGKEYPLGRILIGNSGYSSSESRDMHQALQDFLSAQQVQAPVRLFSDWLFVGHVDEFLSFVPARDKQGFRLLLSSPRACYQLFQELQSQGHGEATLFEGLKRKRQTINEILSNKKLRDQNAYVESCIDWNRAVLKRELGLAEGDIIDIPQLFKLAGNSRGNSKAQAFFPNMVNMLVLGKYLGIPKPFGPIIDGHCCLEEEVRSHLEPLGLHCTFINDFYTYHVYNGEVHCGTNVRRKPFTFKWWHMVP", "assay": "Inhibition of PAD4 in BALB/c mouse bone marrow neutrophils assessed as reduction in histone H3 citrullination at 2 uM preincubated for 2 hrs followed by calcium ionophore A23187 addition and measured after 2 hrs by Hoechst 33342/Ly6G staining based laser confocal microscopic analysis", "settings": "Neutrophil, time 4.0 hrs"}, "[28]": {"assay": "Toxicity in female BALB/c mouse implanted with mouse orthotopic 4T1-Luc cells assessed as effect on serum creatinine level at 1 to 10 mg/kg, iv administered via tail vein every 2 days for 9 times for 17 days", "format": "organism-based", "settings": "in vivo, 408 h, dose 1-10 mg/kg, time 17 day"}, "[29]": {"assay": "Toxicity in female BALB/c mouse implanted with mouse orthotopic 4T1-Luc cells assessed as reduction in body weight at 1 to 10 mg/kg, iv administered via tail vein every 2 days for 9 times for 17 days and measured every 2 days", "format": "organism-based", "settings": "in vivo, 408 h, dose 1-10 mg/kg, time 17 day"}}, "note": "Activity calls are given as the source filed them. The calls are words filed in the database; no cut-off is given here."}
{"smiles": "N=C(CCl)NCCC[C@H](NC(=O)c1cc2c([nH]c3ccccc32)c(-c2ccccc2)n1)C(=O)NCc1ccccc1", "values": [{"measurement": "Activity", "setting": "Mus musculus [1]", "result": "Active"}, {"measurement": "Activity", "setting": "Mus musculus [2]", "result": "Active"}, {"measurement": "Activity", "setting": "4T1-Luc [3]", "result": "Dose-Dependent Effect"}, {"measurement": "IC50", "setting": "[4]", "result": 2.97, "unit": "µM"}, {"measurement": "inhibition", "setting": "Neutrophil", "result": "Active"}, {"measurement": "Activity", "setting": "[5]", "result": "Non-Toxic"}, {"measurement": "beta t1/2", "setting": "[6]", "result": 15, "unit": "min"}, {"measurement": "Activity", "setting": "[7]", "result": "Non-Toxic"}, {"measurement": "Activity", "setting": "Mus musculus [8]", "result": "Active"}, {"measurement": "Activity", "setting": "4T1-Luc [9]", "result": "Dose-Dependent Effect"}, {"measurement": "inhibition in vivo at 10 mg/kg", "setting": "[10]", "result": 61.8, "unit": "%"}, {"measurement": "Activity", "setting": "4T1-Luc [11]", "result": "Dose-Dependent Effect"}, {"measurement": "IC50", "setting": "4T1 [12]", "result": 2.39, "unit": "µM"}, {"measurement": "Activity", "setting": "[13]", "result": "Non-Toxic"}, {"measurement": "Activity", "setting": "4T1-Luc [14]", "result": "Dose-Dependent Effect"}, {"measurement": "Activity", "setting": "4T1 [15]", "result": "Dose-Dependent Effect"}, {"measurement": "Activity", "setting": "Mus musculus [16]", "result": "Active"}, {"measurement": "Activity", "setting": "4T1-Luc [17]", "result": "Active"}, {"measurement": "Activity", "setting": "Mus musculus [18]", "result": "Active"}, {"measurement": "Activity", "setting": "[19]", "result": "Non-Toxic"}, {"measurement": "Activity", "setting": "4T1-Luc [20]", "result": "Dose-Dependent Effect"}, {"measurement": "IC50 at 48 h", "setting": "[21]", "result": 8.39, "unit": "µM"}, {"measurement": "Activity", "setting": "Mus musculus [22]", "result": "Active"}, {"measurement": "Activity", "setting": "[23]", "result": "Non-Toxic"}, {"measurement": "AUC(0-t)", "setting": "[24]", "result": 9.53, "unit": "ng·h/mL"}, {"measurement": "Activity", "setting": "Mus musculus [25]", "result": "Active"}, {"measurement": "Activity", "setting": "Mus musculus [26]", "result": "Active"}, {"measurement": "inhibition", "setting": "[27]", "result": "Active"}, {"measurement": "Activity", "setting": "[28]", "result": "Non-Toxic"}, {"measurement": "Activity", "setting": "[29]", "result": "Non-Toxic"}]}
